Reference: patent publication US20170015555A1, “LONG-TERM PRESERVATION AND NOVEL APPLICATION OF CHLOROUS ACID AQUEOUS SOLUTION FORMULATION” (priority 2013, published 2017)

What was measured:
Type in all cases: cell-based
[1] = test system: E. coli: Escherichia coli IF03927; experiment: Permeability of pathogenic microbes when treatment sheets were laid on vomit; set-up: unit not given here; details: 1000 ppm available chlorine
Description: (§1) 1) Chlorous acid aqueous solution formulation (see Example 1: Table 11) Treatment sheet (material: 100% cotton): (about 27×40 cm) *Impregnated at a ratio of weight of treatment sheet (g): amount of liquid (ml)=1:3 2) Imitation vomit (hereinafter, referred to as vomit) Miso solution: adjusted to pH 2 with hydrochloric acid 3) Test Microbes that were used E. coli: Escherichia coli IF03927 Staphylococcus aureus: Staphylococcus aureus IF0 12732 Thermoduric Microbes (Bacillus cereus): Bacillus cereus NBRC15305 Microbes of the genus Salmonella: Salmonella Enteritidis IF03313 Enterohemorrhagic Escherichia coli 0157: Escherichia coli 0157 Enterohemorrhagic Escherichia coli 0111: Escherichia coli 0111 Enterohemorrhagic Escherichia coli 026: Escherichia coli O26
(§2) Permeability of pathogenic microbes into a treatment sheet when treating vomit was examined to compare effects of preventing secondary contamination. (1) Imitation vomit is spread in an area about the size of an A4 sheet. (2) 30 agent solution-containing treatment sheets were laid thereon and left standing for 10 minutes. (3) Treatment sheets were removed one at a time from the top. After diluting with saline, the sample was spread in a petri dish and cultured.

[2] = test system: Thermoduric Microbes (Bacillus cereus): Bacillus cereus NBRC15305; experiment: as above; set-up: unit not given here; details: 1000 ppm available chlorine
Description: as §1, §2

[3] = test system: Enterohemorrhagic Escherichia coli O26; experiment: Sterilizing effect on floor surface after wiping off imitation vomit, rubber mattress; details: 1000 ppm available chlorine
Description: (§3) 1) Chlorous acid aqueous solution formulation (see Example 1: Table 11) Treatment sheet (material: 100% cotton): (about 27×40 cm) *Impregnated at a ratio of weight of treatment sheet (g): amount of liquid (ml)=1:3 2) Imitation vomit Miso solution: adjusted to pH of 2 with hydrochloric acid 3) Test Microbes that were Used E. coli: Escherichia coli IF03927 Staphylococcus aureus: Staphylococcus aureus IF0 12732 Thermoduric Microbes (Bacillus cereus): Bacillus cereus NBRC15305 Microbes of the genus Salmonella: Salmonella Enteritidis IF03313 Enterohemorrhagic Escherichia coli O157: Escherichia coli O157 Enterohemorrhagic Escherichia coli O111: Escherichia coli O111 Enterohemorrhagic Escherichia coli O26: Escherichia coli O26
(§4) (1) Imitation vomit was spread in an area about the size of an A4 sheet. (2) 5 agent solution-containing treatment sheets were laid thereon. (3) The imitation vomit was wiped off. (4) A cotton swab was soaked with sterile saline. A portion where imitation vomit was spread was scrubbed with the cotton swab to collect microbes remaining on the floor. After suspending in saline, the solution was spread on a petri dish and cultured. The number of each of the microbes was measured. (5) Test operations 3 and 4 were repeated a total of 7 times (repeated until the imitation vomit could be removed completely).

[4] = test system: Bacillus cereus NBRC15305; experiment: as above; details: 1000 ppm available chlorine
Description: as §3, §4

[5] = test system: E. coli: Escherichia coli IF03927; experiment: as above; details: 1000 ppm available chlorine
Description: as §3, §4

[6] = test system: Enterohemorrhagic Escherichia coli O111; experiment: as above
Description: as §3, §4

[7] = test system: Enterohemorrhagic Escherichia coli O157; experiment: as above; details: 1000 ppm available chlorine
Description: as §3, §4

[8] = test system: Staphylococcus aureus IF0 12732; experiment: as above; details: 1000 ppm available chlorine
Description: as §3, §4

[9] = test system: Microbes of the genus Salmonella: Salmonella Enteritidis IF03313; experiment: as above; details: 1000 ppm available chlorine
Description: as §3, §4

[10] = 1000 ppm available chlorine, stored at 25° C. Day 0
[11] = 1000 ppm, stored at 25° C. Day 7

Question: `OCl` [Sodium Hypochlorite, sodium hypochlorite] was tested. Which “microbes in treatment sheet laid on imitation vomit” value (“microbes in treatment sheet laid” below) ([1]; 1 sheet, Day 0 at 25° C.) did it give?
Answer: <10

Question: What about the “microbes in treatment sheet laid” value ([1]; 1 sheet, Day 7 at 25° C.) of the same compound?
Answer: >10^6

Question: What about the “microbes in treatment sheet laid” value ([1]; 2 sheets, Day 0 at 25° C.) of the same compound?
Answer: <10

Question: And the “microbes in treatment sheet laid” value ([1]; 2 sheets, Day 7 at 25° C.)?
Answer: >10^6

Question: And the “microbes in treatment sheet laid” value ([1]; 3 sheets, Day 0 at 25° C.)?
Answer: <10

Question: What about the “microbes in treatment sheet laid” value ([1]; 3 sheets, Day 7 at 25° C.) of the same compound?
Answer: >10^6

Question: And the “microbes in treatment sheet laid” value ([1]; 4 sheets, Day 0 at 25° C.)?
Answer: <10

Question: What about the “microbes in treatment sheet laid” value ([1]; 4 sheets, Day 7 at 25° C.) of the same compound?
Answer: >10^6

Question: And the “microbes in treatment sheet laid” value ([1]; 5 sheets, Day 0 at 25° C.)?
Answer: <10

Question: And the “microbes in treatment sheet laid” value ([1]; 5 sheets, Day 7 at 25° C.)?
Answer: >10^6

Question: And the “microbes in treatment sheet laid” value ([1]; 6 sheets, Day 0 at 25° C.)?
Answer: <10

Question: What about the “microbes in treatment sheet laid” value ([1]; 6 sheets, Day 7 at 25° C.) of the same compound?
Answer: >10^6

Question: And the “microbes in treatment sheet laid” value ([1]; 8 sheets, Day 0 at 25° C.)?
Answer: <10

Question: What about the “microbes in treatment sheet laid” value ([1]; 8 sheets, Day 7 at 25° C.) of the same compound?
Answer: >10^6

Question: What about the “microbes in treatment sheet laid” value ([1]; 10 sheets, Day 0 at 25° C.) of the same compound?
Answer: <10

Question: And the “microbes in treatment sheet laid” value ([1]; 10 sheets, Day 7 at 25° C.)?
Answer: >10^6

Question: And the “microbes in treatment sheet laid” value ([1]; 20 sheets, Day 0 at 25° C.)?
Answer: <10

Question: And the “microbes in treatment sheet laid” value ([1]; 20 sheets, Day 7 at 25° C.)?
Answer: >10^6

Question: And the “microbes in treatment sheet laid” value ([1]; 30 sheets, Day 0 at 25° C.)?
Answer: <10

Question: What about the “microbes in treatment sheet laid” value ([1]; 30 sheets, Day 7 at 25° C.) of the same compound?
Answer: >10^6

Question: And the “microbes in treatment sheet laid” value ([2]; 1 sheet, Day 0 at 25° C.)?
Answer: <10

Question: What about the “microbes in treatment sheet laid” value ([2]; 1 sheet, Day 7 at 25° C.) of the same compound?
Answer: >10^6

Question: And the “microbes in treatment sheet laid” value ([2]; 2 sheets, Day 0 at 25° C.)?
Answer: <10

Question: And the “microbes in treatment sheet laid” value ([2]; 2 sheets, Day 7 at 25° C.)?
Answer: >10^6

Question: And the “microbes in treatment sheet laid” value ([2]; 3 sheets, Day 0 at 25° C.)?
Answer: <10

Question: And the “microbes in treatment sheet laid” value ([2]; 3 sheets, Day 7 at 25° C.)?
Answer: >10^6

Question: What about the “microbes in treatment sheet laid” value ([2]; 4 sheets, Day 0 at 25° C.) of the same compound?
Answer: <10

Question: What about the “microbes in treatment sheet laid” value ([2]; 4 sheets, Day 7 at 25° C.) of the same compound?
Answer: >10^6

Question: And the “microbes in treatment sheet laid” value ([2]; 5 sheets, Day 0 at 25° C.)?
Answer: <10

Question: What about the “microbes in treatment sheet laid” value ([2]; 5 sheets, Day 7 at 25° C.) of the same compound?
Answer: >10^6

Question: And the “microbes in treatment sheet laid” value ([2]; 6 sheets, Day 0 at 25° C.)?
Answer: <10

Question: What about the “microbes in treatment sheet laid” value ([2]; 6 sheets, Day 7 at 25° C.) of the same compound?
Answer: >10^6

Question: What about the “microbes in treatment sheet laid” value ([2]; 8 sheets, Day 0 at 25° C.) of the same compound?
Answer: <10

Question: What about the “microbes in treatment sheet laid” value ([2]; 8 sheets, Day 7 at 25° C.) of the same compound?
Answer: 1.1 × 10^4

Question: And the “microbes in treatment sheet laid” value ([2]; 10 sheets, Day 0 at 25° C.)?
Answer: <10

Question: And the “microbes in treatment sheet laid” value ([2]; 10 sheets, Day 7 at 25° C.)?
Answer: 7.1 × 10^2

Question: And the “microbes in treatment sheet laid” value ([2]; 20 sheets, Day 0 at 25° C.)?
Answer: <10

Question: What about the “microbes in treatment sheet laid” value ([2]; 20 sheets, Day 7 at 25° C.) of the same compound?
Answer: <10

Question: What about the “microbes in treatment sheet laid” value ([2]; 30 sheets, Day 0 at 25° C.) of the same compound?
Answer: <10

Question: What about the “microbes in treatment sheet laid” value ([2]; 30 sheets, Day 7 at 25° C.) of the same compound?
Answer: <10

Question: What about the “microbes remaining, wiped 1 Time” value ([3]; stored at 25° C. Day 0) of the same compound?
Answer: <10

Question: What about the “microbes remaining, wiped 2 Times” value ([3]; stored at 25° C. Day 0) of the same compound?
Answer: <10

Question: And the “microbes remaining, wiped 3 Times” value ([3]; stored at 25° C. Day 0)?
Answer: <10

Question: And the “microbes remaining, wiped 1 Time” value ([3]; stored at 25° C. Day 7)?
Answer: 3.2 × 10^3

Question: What about the “microbes remaining, wiped 2 Times” value ([3]; stored at 25° C. Day 7) of the same compound?
Answer: 1.0 × 10^3

Question: What about the “microbes remaining, wiped 3 Times” value ([3]; stored at 25° C. Day 7) of the same compound?
Answer: 3.0 × 10^2

Question: What about the “microbes remaining, wiped 1 Time” value ([4]; stored at 25° C. Day 0) of the same compound?
Answer: <10

Question: What about the “microbes remaining, wiped 2 Times” value ([4]; stored at 25° C. Day 0) of the same compound?
Answer: <10

Question: And the “microbes remaining, wiped 3 Times” value ([4]; stored at 25° C. Day 0)?
Answer: <10

Question: What about the “microbes remaining, wiped 1 Time” value ([4]; stored at 25° C. Day 7) of the same compound?
Answer: 2.1 × 10^3

Question: And the “microbes remaining, wiped 2 Times” value ([4]; stored at 25° C. Day 7)?
Answer: 6.5 × 10^2

Question: And the “microbes remaining, wiped 3 Times” value ([4]; stored at 25° C. Day 7)?
Answer: 1.8 × 10^2

Question: And the “Microbe count on floor, wiped 1 Time” value ([5]; Day 0 at 25° C.)?
Answer: <10

Question: And the “Microbe count on floor, wiped 2 Times” value ([5]; Day 0 at 25° C.)?
Answer: <10

Question: And the “Microbe count on floor, wiped 3 Times” value ([5]; Day 0 at 25° C.)?
Answer: <10

Question: What about the “Microbe count on floor, wiped 1 Time” value ([5]; Day 7 at 25° C.) of the same compound?
Answer: 2.3 × 10^4

Question: And the “Microbe count on floor, wiped 2 Times” value ([5]; Day 7 at 25° C.)?
Answer: 7.8 × 10^3

Question: And the “Microbe count on floor, wiped 3 Times” value ([5]; Day 7 at 25° C.)?
Answer: 2.1 × 10^3

Question: And the “microbes remaining, wiped 1 Time” value [6, 10]?
Answer: <10

Question: And the “microbes remaining, wiped 2 Times” value [6, 10]?
Answer: <10

Question: And the “microbes remaining, wiped 3 Times” value [6, 10]?
Answer: <10

Question: And the “microbes remaining, wiped 1 Time” value [6, 11]?
Answer: 1.5 × 10^3

Question: And the “microbes remaining, wiped 2 Times” value [6, 11]?
Answer: 1.0 × 10^3

Question: And the “microbes remaining, wiped 3 Times” value [6, 11]?
Answer: 2.6 × 10^2

Question: What about the “microbes remaining, wiped 7 Times” value [6, 11] of the same compound?
Answer: <10

Question: What about the “microbes remaining, wiped 1 Time” value ([7]; stored at 25° C. Day 0) of the same compound?
Answer: <10

Question: What about the “microbes remaining, wiped 2 Times” value ([7]; stored at 25° C. Day 0) of the same compound?
Answer: <10

Question: What about the “microbes remaining, wiped 3 Times” value ([7]; stored at 25° C. Day 0) of the same compound?
Answer: <10

Question: And the “microbes remaining, wiped 1 Time” value ([7]; stored at 25° C. Day 7)?
Answer: 4.2 × 10^3

Question: And the “microbes remaining, wiped 2 Times” value ([7]; stored at 25° C. Day 7)?
Answer: 1.2 × 10^3

Question: What about the “microbes remaining, wiped 3 Times” value ([7]; stored at 25° C. Day 7) of the same compound?
Answer: 1.1 × 10^2

Question: And the “Microbe count on floor, wiped 1 Time” value ([8]; Day 0 at 25° C.)?
Answer: <10

Question: What about the “Microbe count on floor, wiped 2 Times” value ([8]; Day 0 at 25° C.) of the same compound?
Answer: <10

Question: And the “Microbe count on floor, wiped 3 Times” value ([8]; Day 0 at 25° C.)?
Answer: <10

Question: And the “Microbe count on floor, wiped 1 Time” value ([8]; Day 7 at 25° C.)?
Answer: 8.7 × 10^6

Question: And the “Microbe count on floor, wiped 2 Times” value ([8]; Day 7 at 25° C.)?
Answer: 7.3 × 10^3

Question: And the “Microbe count on floor, wiped 3 Times” value ([8]; Day 7 at 25° C.)?
Answer: 3.3 × 10^3

Question: And the “microbes remaining, wiped 1 Time” value ([9]; stored at 25° C. Day 0)?
Answer: <10

Question: And the “microbes remaining, wiped 2 Times” value ([9]; stored at 25° C. Day 0)?
Answer: <10

Question: What about the “microbes remaining, wiped 3 Times” value ([9]; stored at 25° C. Day 0) of the same compound?
Answer: <10

Question: What about the “microbes remaining, wiped 1 Time” value ([9]; stored at 25° C. Day 7) of the same compound?
Answer: 1.1 × 10^3

Question: What about the “microbes remaining, wiped 2 Times” value ([9]; stored at 25° C. Day 7) of the same compound?
Answer: 3.6 × 10^2
